pIC50: −log10 of the molar value.
How the values were obtained:
Assay type in all cases: biochemical
[1] = target: T1, PIP4K2A (Homo sapiens, UniProt P48426); assay: ADP-glo kinase assay PIP4K 2A (Table 3); set-up: made in house; host or cells: E. coli; conditions: compounds listed under IC50 bins
T1 sequence (P48426 1-406): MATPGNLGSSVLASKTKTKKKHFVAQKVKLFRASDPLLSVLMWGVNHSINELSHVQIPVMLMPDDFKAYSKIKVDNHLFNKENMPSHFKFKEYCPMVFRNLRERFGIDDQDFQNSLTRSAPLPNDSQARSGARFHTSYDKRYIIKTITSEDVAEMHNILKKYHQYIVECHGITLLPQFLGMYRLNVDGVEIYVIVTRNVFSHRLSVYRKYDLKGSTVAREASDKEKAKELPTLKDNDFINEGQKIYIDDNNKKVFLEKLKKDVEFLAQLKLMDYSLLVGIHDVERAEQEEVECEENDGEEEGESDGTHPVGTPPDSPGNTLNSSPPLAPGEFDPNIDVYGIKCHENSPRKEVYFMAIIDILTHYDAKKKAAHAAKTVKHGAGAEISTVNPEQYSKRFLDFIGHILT
Description: Dilution series of the compounds were prepared in DMSO at 100 times the final assay concentration (n1=n0/3 in 10 points). The compounds were further diluted to three times the assay concentration in assay buffer (20 mM MOPS pH 7.2, 25 mM magnesium chloride, 0.005% Tween 20). 6 μL of the diluted compounds were added to a 384 well assay plate followed by 9 μL of a mix consisting of 4 nM PIP4K2A (full length protein, SignalChem) and 100 μM PI(5)P diC8 (Tebu-Bio). Enzyme and compounds were pre-incubated at room temperature for 15 minutes.
Then 3 μL of a solution containing 60 μM ATP (Promega) in assay buffer was added to the wells containing compound and enzyme and mixing was performed by pipetting several times. The reaction was incubated at room temperature for 1 h. Then 18 μL of ADP-Glo™ Reagent (Promega) was added to stop the kinase reaction and deplete the unconsumed ATP, mixing was performed by pipetting several times. The plate was incubated at room temperature for 40 minutes before addition of 36 μL of Kinase Detection Reagent (Promega) to convert ADP to ATP and introduce luciferase and luciferin to detect ATP. The reaction was incubated at room temperature for 40 minutes before the luminescence was measured in a in a Victor 3V 1420 multilabel counter (Perkin Elmer).
Percent inhibition of the compounds as compared to dimethyl sulfoxide treated control samples was calculated. Compound concentration versus percent inhibition were fitted to generate IC50 values. […]

[2] = target: T2, PIP4K2B (Homo sapiens, UniProt P78356); assay: Trans-FI P kinase assay PIP4K2B (Table 4); conditions: compounds listed under IC50 bins; read-out: Trans-FI P kinase assays: PIP4K2B IC50
T2 construct: made in house; host or cells: E. coli
T2 sequence (P78356 1-416): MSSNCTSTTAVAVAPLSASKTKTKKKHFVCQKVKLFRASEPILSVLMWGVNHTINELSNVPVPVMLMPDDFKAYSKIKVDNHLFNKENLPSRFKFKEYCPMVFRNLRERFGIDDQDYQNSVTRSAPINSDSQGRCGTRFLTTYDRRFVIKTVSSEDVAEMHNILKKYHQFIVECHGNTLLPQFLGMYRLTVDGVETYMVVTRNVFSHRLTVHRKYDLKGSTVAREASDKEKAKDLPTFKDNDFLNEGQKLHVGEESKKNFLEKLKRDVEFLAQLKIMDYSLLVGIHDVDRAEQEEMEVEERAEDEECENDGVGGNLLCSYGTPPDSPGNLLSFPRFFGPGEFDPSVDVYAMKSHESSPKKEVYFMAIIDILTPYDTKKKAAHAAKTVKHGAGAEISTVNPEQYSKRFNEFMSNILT
Excerpt: GST tagged PIP4KtypeIIA and B enzymes were overexpressed in E. Coli and purified to >80% homogeneity. Phosphatidyl inositol-5-phosphate (PI5P, Cat. #850152, Avanti Polar Lipids Inc.) was used as the lipid substrate and phosphatidyl ethanolamine (DOPE 18:1, Cat. #850725, Avanti Polar Lipids Inc.) was used as the carrier lipid for assays. Ultrapure ATP and GTP was purchased from Bellbrooke Labs. ADP Glo reagents were obtained from Promega. Transcreener FI reagent was obtained from Bellbrooke labs.
GST-tagged PIP4KtypeIIB (3.4 μL, 2.77 mg/mL) was diluted to 5 mL using HNE buffer to yield 5× enzyme stock (25 nM)
Lipid Preparation: In a 10 mL pyrex glass vial, […] were suspended in 2.5 mL of HEPES buffer mix and 2.5 mL of H:E buffer. The contents were mixed and sonicated for 3 min to yield a translucent lipid stock.
Compound Preparation: Compounds were stored as 5 mM stocks in neat DMSO as room temperature in glass vials. 5 mM stocks were diluted to 2 mM and then serially diluted (3×) in neat DMSO in 96 well polypropylene plates. From the serially diluted stocks, 3 μL was delivered into 250 μL of 25% DMSO (in water) to generate 5× compound stocks. Typically, the highest compound conc. was 24 μM.
The assay volume was kept at 25 μL. To each well of the reaction plate, 10 μL of lipid stock (1:1 ratio PI5P:DOPE) was delivered. This was followed by the addition of 5 μL of compound in 25% DMSO. Then, to each well, 5 μL of 25 nM (5×) typeIIB enzyme was delivered. The contents were mixed well and incubated for 1 h at 27° C. After 1 h, reaction was initiated by adding 5 μL of 500 μM GTP and the contents were mixed well with a multi-channel pipetteman. The final concentration of the reagents are as follows: 50 mM HEPES, pH 7.3, 10 mM MgCl2, 20 mM NaCl, 0.01% v/v triton-X100, 5% DMSO, 100 μM GTP, 80 μM (2 μg) PI5P, 2 μg DOPE, and 5 nM PIP4KIIB Typically, the highest conc. of compounds was 4.8 μM and the lowest conc. was 0.
After 2 h, the reaction was quenched by adding 25 μL of transcreener FI reagent. The contents were incubated at rt for 1 h and the Fluorescence (Ex: 584 Em: 623) was read using Molecular Devices Paradigm plate reader. […] The blanks were averaged and subtracted from all other wells. Using a calibration curve, RFU was converted to μM GDP (product). IC50 was calculated by plotting the residual activity (expressed as % No inhibitor control) vs. log [Inh. conc.]

[3] = target: T1, PIP4K2A; assay: Kinase Assay PIP4K2 A (Table 2); set-up: 4 nM PIP4K2A (full length protein, SignalChem); purchased SignalChem; conditions: compounds listed under IC50 bins
Outline: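 ADP-Glo luminescent read-out after 1 h room-temperature kinase reaction, started with 60 μM ATP solution following 15 min compound pre-incubation. Enzyme/substrate mix: 4 nM full-length PIP4K2A plus 100 μM PI(5)P diC8; buffer MOPS pH 7.2 with 25 mM MgCl2 and Tween 20. IC50 from 10-point, 3-fold titrations normalized to DMSO.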

## CN(C)C/C=C/C(=O)Nc1ccc(C(=O)Nc2cncc(Nc3ccc(-c4ccc(N5CCCC5=O)cc4)cn3)c2)cc1 [Example 167, (E)-4-(4-(dimethylamino)but-2-enamido)-N-(5-((5-(4-(2-oxopyrrolidin-1-yl)phenyl)pyridin-2-yl)amino)pyridin-3-yl)benzamide]
[1]
  pIC50: 7.00 to 8.00
[2]
  pIC50: 7.00 to 8.00

## CN(C)CCCC(=O)Nc1ccc(C(=O)Nc2cncc(Nc3ccc(-c4ccc(N5CCCC5=O)cc4)cn3)c2)cc1 [Example 168, 4-(4-(dimethylamino)butanamido)-N-(5-((5-(4-(2-oxopyrrolidin-1-yl)phenyl)pyridin-2-yl)amino)pyridin-3-yl)benzamide]
[1]
  pIC50: 7.00 to 8.00
[2]
  pIC50: 7.00 to 8.00

## CN(C)C/C=C/C(=O)Nc1cccc(CCC(=O)Nc2cncc(Nc3ccc(-c4ccc(N5CCCC5=O)cc4)cn3)c2)c1 [Example 169, (E)-4-(dimethylamino)-N-(3-(3-oxo-3-((5-((5-(4-(2-oxopyrrolidin-1-yl)phenyl)pyridin-2-yl)amino)pyridin-3-yl)amino)propyl)phenyl)but-2-enamide]
[1]
  pIC50: 7.00 to 8.00
[2]
  pIC50: 7.00 to 8.00

## CN(C)CCCC(=O)Nc1cccc(CCC(=O)Nc2cncc(Nc3ccc(-c4ccc(N5CCCC5=O)cc4)cn3)c2)c1 [Example 170, 4-(dimethylamino)-N-(3-(3-oxo-3-((5-((5-(4-(2-oxopyrrolidin-1-yl)phenyl)pyridin-2-yl)amino)pyridin-3-yl)amino)propyl)phenyl)butanamide]
[1]
  pIC50: 7.00 to 8.00
[2]
  pIC50: 7.00 to 8.00

## CN(C)C/C=C/C(=O)NCC(=O)Nc1ccc(CN2CCN(c3cncc(Nc4ccc(-c5ccc(N6CCCC6=O)cc5)cn4)c3)C2=O)cc1 [Example 172, (E)-4-(dimethylamino)-N-(2-oxo-2-((4-((2-oxo-3-(5-((5-(4-(2-oxopyrrolidin-1-yl)phenyl)pyridin-2-yl)amino)pyridin-3-yl)imidazolidin-1-yl)methyl)phenyl)amino)ethyl)but-2-enamide]
[1]
  pIC50: 8.00 to 9.00
[2]
  pIC50: 7.00 to 8.00

## O=C1CCCN1c1ccc(-c2ccc(Nc3cnc4c(c3)N3C(=O)CC[C@@H]3CO4)nc2)cc1F [Example 173, (R)-2-((5-(3-fluoro-4-(2-oxopyrrolidin-1-yl)phenyl)pyridin-2-yl)amino)-6,6a,7,8-tetrahydro-9H-pyrido[2,3-b]pyrrolo[1,2-d][1,4]oxazin-9-one]
[1]
  pIC50: 7.00 to 8.00
[2]
  pIC50: 7.00 to 8.00

## Cc1cc(Nc2cnc3c(c2)N2C(=O)CC[C@H]2CO3)ncc1-c1ccc(N2CCCC2=O)cc1 [Example 176, (S)-2-((4-methyl-5-(4-(2-oxopyrrolidin-1-yl)phenyl)pyridin-2-yl)amino)-6,6a,7,8-tetrahydro-9H-pyrido[2,3-b]pyrrolo[1,2-d][1,4]oxazin-9-one]
[1]
  pIC50: 8.00 to 9.00
[2]
  pIC50: 7.00 to 8.00

## CC(C)c1cc(Nc2cnc3c(c2)N2C(=O)CC[C@H]2CO3)ncc1-c1ccc(N2CCCC2=O)c(F)c1 [Example 181, (S)-2-((5-(3-fluoro-4-(2-oxopyrrolidin-1-yl)phenyl)-4-isopropylpyridin-2-yl)amino)-6,6a,7,8-tetrahydro-9H-pyrido[2,3-b]pyrrolo[1,2-d][1,4]oxazin-9-one]
[1]
  pIC50: 8.00 to 9.00
[2]
  pIC50: 7.00 to 8.00

## O=C1CCCN1c1ccc(-c2cnc(Nc3cnc4c(c3)N3C(=O)CC[C@H]3CO4)cc2C2CC2)cc1F [Example 182, (S)-2-((4-cyclopropyl-5-(3-fluoro-4-(2-oxopyrrolidin-1-yl)phenyl)pyridin-2-yl)amino)-6,6a,7,8-tetrahydro-9H-pyrido[2,3-b]pyrrolo[1,2-d][1,4]oxazin-9-one]
[1]
  pIC50: 8.00 to 9.00
[2]
  pIC50: 7.00 to 8.00

## O=C1CCCN1c1ccc(-c2cnc(Nc3cnc4c(c3)N3C(=O)CC[C@H]3CO4)nc2)cc1F [Example 187, (S)-2-((5-(3-fluoro-4-(2-oxopyrrolidin-1-yl)phenyl)pyrimidin-2-yl)amino)-6,6a,7,8-tetrahydro-9H-pyrido[2,3-b]pyrrolo[1,2-d][1,4]oxazin-9-one]
[1]
  pIC50: 7.00 to 8.00
[2]
  pIC50: 7.00 to 8.00

## Cc1cc(-c2ccc(N3CCCC3=O)cc2)cnc1Nc1cnc2c(c1)N1C(=O)CC[C@H]1CO2 [Example 194, (S)-2-((3-methyl-5-(4-(2-oxopyrrolidin-1-yl)phenyl)pyridin-2-yl)amino)-6,6a,7,8-tetrahydro-9H-pyrido[2,3-b]pyrrolo[1,2-d][1,4]oxazin-9-one]
[1]
  pIC50: < 6.00
[2]
  pIC50: < 6.00

## COc1nc(Nc2cnc3c(c2)N2C(=O)CC[C@H]2CO3)ncc1-c1ccc(N2CCCC2=O)cc1 [Example 195, (S)-2-((4-methoxy-5-(4-(2-oxopyrrolidin-1-yl)phenyl)pyrimidin-2-yl)amino)-6,6a,7,8-tetrahydro-9H-pyrido[2,3-b]pyrrolo[1,2-d][1,4]oxazin-9-one]
[1]
  pIC50: ≥ 9.00
[2]
  pIC50: 8.00 to 9.00

## Cc1nc(Nc2cnc3c(c2)N2C(=O)CC[C@H]2CO3)ncc1-c1ccc(N2CCCC2=O)cc1 [Example 196, (S)-2-((4-methyl-5-(4-(2-oxopyrrolidin-1-yl)phenyl)pyrimidin-2-yl)amino)-6,6a,7,8-tetrahydro-9H-pyrido[2,3-b]pyrrolo[1,2-d][1,4]oxazin-9-one]
[1]
  pIC50: 7.00 to 8.00
[2]
  pIC50: 8.00 to 9.00

## CC(C)Cn1cnnc1-c1ccc(-c2ccc(Nc3cnc4c(c3)N3C(=O)CC[C@H]3CO4)nc2)cc1 [Example 297, (S)-2-((5-(4-(4-isobutyl-4H-1,2,4-triazol-3-yl)phenyl)pyridin-2-yl)amino)-6,6a,7,8-tetrahydro-9H-pyrido[2,3-b]pyrrolo[1,2-d][1,4]oxazin-9-one]
[2]
  pIC50: 7.00 to 8.00
[3]
  pIC50: 7.00 to 8.00

— patent publication US11667651B2, “Aminopyridine derivatives as phosphatidylinositol phosphate kinase inhibitors” (HiberCell, Inc., priority 2017, dated 2023)
